Laboratory results taken from ChEMBL document CHEMBL4342418, “1,2,3-Triazole-containing hybrids as potential anticancer agents: Current developments, action mechanisms and structure-activity relationships” (Eur J Med Chem, 2019).
pIC50: −log10 of the molar value. ≈ marks a conversion by molar mass, not a printed value.

Tests used:
SK-BR-3 = assay: Antiproliferative activity against human SKBR3 cells assessed as reduction in cell viability after 72 hrs by MTT assay; type: functional, cell-based; conditions: SK-BR-3, 72 h
KG-1a = assay: Antiproliferative activity against human KG1a cells assessed as reduction in cell viability after 72 hrs by MTT assay; type: functional, cell-based
SUM-159-PT = assay: Antiproliferative activity against human SUM159 cells assessed as reduction in cell viability after 72 hrs by MTT assay; type: functional, cell-based
HT-29 = assay: Antiproliferative activity against human HT-29 cells assessed as reduction in cell viability after 48 hrs by MTT assay; type: functional, cell-based; conditions: HT-29, 48 h
A549 = assay: Antiproliferative activity against human A549 cells assessed as reduction in cell viability after 48 hrs by MTT assay; type: functional, cell-based; conditions: A549, 48 h
DU-145 [1] = assay: Antiproliferative activity against human DU145 cells assessed as reduction in cell viability after 48 hrs by MTT assay; type: functional, cell-based; conditions: DU-145, 48 h
SK-N-SH = assay: Antiproliferative activity against human SK-N-SH cells by MTT assay; type: functional, cell-based
MGC-803 = assay: Antiproliferative activity against human MGC803 cells by MTT assay; type: functional, cell-based
HepG2 [2] = assay: Antiproliferative activity against human HepG2 cells by MTT assay; type: functional, cell-based
MDA-MB-231 [3] = assay: Antiproliferative activity against human MDA-MB-231 cells by SRB assay; type: functional
HepG2 [4] = assay: Antiproliferative activity against human HepG2 cells by SRB assay; type: functional, cell-based
DU-145 [5] = assay: Antiproliferative activity against human DU145 cells by SRB assay; type: functional, cell-based
HeLa = assay: Antiproliferative activity against human HeLa cells by SRB assay; type: functional, cell-based
MCF-10A = assay: Cytotoxicity against human MCF10A cells by MTT assay; type: cell-based
MDA-MB-231 [6] = assay: Antiproliferative activity against human MDA-MB-231 cells by MTT assay; type: functional, cell-based
MCF7 [7] = assay: cells; type: functional, cell-based; conditions: Homo sapiens
Description: Antiproliferative activity against human MCF7 cells by MTT assay

MCF7 [8] = assay: Antiproliferative activity against human MCF7 cells assessed as reduction in cell viability after 48 hrs by MTT assay; type: functional, cell-based; conditions: MCF7, 48 h
HCT-116 [9] = assay: Antiproliferative activity against human HCT116 cells assessed as reduction in cell viability after 48 hrs by MTT assay; type: functional, cell-based; conditions: HCT-116, 48 h
C2C12 = assay: Cytotoxicity against mouse C2C12 cells assessed as reduction in cell viability after 48 hrs by MTT assay; type: cell-based; conditions: C2C12, 48 h
[10] = Antiproliferative activity against human SMCC7721 cells assessed as reduction in cell viability after 48 hrs by MTT assay; type: functional, cell-based
SW480 = assay: Antiproliferative activity against human SW480 cells assessed as reduction in cell viability after 48 hrs by MTT assay; type: functional, cell-based; conditions: SW480, 48 h
Caco-2 = assay: Antiproliferative activity against human Caco2 cells assessed as reduction in cell viability after 48 hrs by MTT assay; type: functional, cell-based; conditions: Caco-2, 48 h
T47D [11] = assay: Antiproliferative activity against human T47D cells assessed as reduction in cell viability after 48 hrs by MTT assay; type: functional, cell-based
MCF7 [12] = assay: Antiproliferative activity against human MCF7 cells assessed as reduction in cell viability after 72 hrs by MTT assay; type: functional, cell-based; conditions: MCF7, 72 h
T47D [13] = assay: Antiproliferative activity against human T47D cells assessed as reduction in cell viability after 72 hrs by MTT assay; type: functional, cell-based
HCT-116 [14] = assay: Antiproliferative activity against human HCT116 cells by MTT assay; type: functional, cell-based

Molecule CS(=O)(=O)CCNCc1ccc(-c2ccc3ncnc(Nc4ccc(OCc5cccc(F)c5)c(Cl)c4)c3c2)o1 [LAPATINIB] has a pIC50 (SK-BR-3) of 4.70 to 5.01, a pIC50 (KG-1a) of 4.70 to 5.01 and a pIC50 (SUM-159-PT) of 4.70 to 5.01.
Work on O=C(c1cn(Cc2cccc(Oc3ccccc3)c2)nn1)c1cccnc1Nc1ccc(F)cc1 yielded a pIC50 (HT-29) of 5.96 to 7.00, a pIC50 (A549) of 5.96 to 7.00 and a pIC50 (DU-145 [1]) of 5.96 to 7.00.
COc1cc(/C=C/C(=O)c2ccc(OCCCn3cc(CSc4nnnn4C)nn3)cc2)cc(OC)c1OC gave a pIC50 (SK-N-SH) of 4.98 to 5.82, a pIC50 (MGC-803) of 4.98 to 5.82 and a pIC50 (HepG2 [2]) of 4.98 to 5.82.
Work on Cc1ccc(-c2nn(Cc3cn(Cc4ccccc4F)nn3)c(=O)o2)cc1 yielded a GI50 (MDA-MB-231 [3]) of 820 to 2390 nM, a GI50 (HepG2 [4]) of 820 to 2390 nM and a GI50 (DU-145 [5]) of 820 to 2390 nM. For the same molecule, the GI50 (HeLa) was 820 to 2390 nM.
Molecule Fc1cccc(COc2ccc(Nc3ncnc4ccc(-n5cc(CN6CCCC6)nn5)cc34)cc2Cl)c1 has a pIC50 (SK-BR-3) of 5.13 to 5.69, a pIC50 (KG-1a) of 5.13 to 5.69 and a pIC50 (SUM-159-PT) of 5.13 to 5.69.
Molecule COc1cc(/C=C/C(=O)c2ccc(OCCCn3cc(CSc4nncs4)nn3)cc2)cc(OC)c1OC has a pIC50 (SK-N-SH) of 4.98 to 5.82, a pIC50 (MGC-803) of 4.98 to 5.82 and a pIC50 (HepG2 [2]) of 4.98 to 5.82.
For CN(C)CCOc1ccc(/C(=C(/CCCl)c2ccccc2)c2ccccc2)cc1 [TOREMIFENE], the pIC50 (MCF-10A) was < 4.00, the pIC50 (MDA-MB-231 [6]) was 4.89 and the pIC50 (MCF7 [7]) was 5.15.
COc1cc(/C=C/C(=O)c2ccc(OCCCn3cc(CSC4=NCCS4)nn3)cc2)cc(OC)c1OC showed a pIC50 (SK-N-SH) of 4.98 to 5.82, a pIC50 (MGC-803) of 4.98 to 5.82 and a pIC50 (HepG2 [2]) of 4.98 to 5.82.
In the case of CN(C)CCCOc1cc(C(=O)NCc2cn(-c3ccc(NC(=O)[C@@H]4CCCN4)cc3)nn2)nc(C(=O)NCc2cn(-c3ccc(NC(=O)[C@H]4CCCN4)cc3)nn2)c1, the pIC50 (MCF7 [8]) was 4.84, the pIC50 (HCT-116 [9]) was 4.82 and the pIC50 (C2C12) was < 4.40.
Molecule CCCN1CCC(NCc2cn(-c3ccc4ncnc(Nc5ccc(OCc6cccc(F)c6)c(Cl)c5)c4c3)nn2)CC1 has a pIC50 (SK-BR-3) of 5.13 to 5.69, a pIC50 (KG-1a) of 5.13 to 5.69 and a pIC50 (SUM-159-PT) of 5.13 to 5.69.
With Cc1ccc(-c2nn(Cc3cn(Cc4ccccc4)nn3)c(=O)o2)cc1 the GI50 (MDA-MB-231 [3]) was 820 to 2390 nM, the GI50 (HepG2 [4]) was 820 to 2390 nM and the GI50 (DU-145 [5]) was 820 to 2390 nM. The GI50 (HeLa) was 820 to 2390 nM.
Work on O=c1oc(-c2ccccc2)nn1Cc1cn(Cc2ccccc2)nn1 yielded a GI50 (MDA-MB-231 [3]) of 820 to 2390 nM, a GI50 (HepG2 [4]) of 820 to 2390 nM and a GI50 (DU-145 [5]) of 820 to 2390 nM. For the same molecule, the GI50 (HeLa) was 820 to 2390 nM.
With COc1cc([C@@H]2c3cc4c(cc3[C@H](n3cc(CO[C@@H]5O[C@H](COC(C)(C)C)[C@@H](OC(C)(C)C)[C@H](OC(C)(C)C)[C@H]5OC(C)(C)C)nn3)[C@H]3COC(=O)[C@H]23)OCO4)cc(OC)c1OC the pIC50 [10] was 5.17 to 6.31, the pIC50 (SW480) was 5.17 to 6.31 and the pIC50 (MCF7 [8]) was 5.17 to 6.31. It also gave a pIC50 (A549) of 5.17 to 6.31.
Molecule CCOC(=O)c1cn(CC(=O)N2CCN(c3nc4ccccc4s3)CC2)nn1 has a pIC50 (Caco-2) of 3.81 to 4.48, a pIC50 (MCF7 [8]) of 3.81 to 4.48 and a pIC50 (T47D [11]) of 3.81 to 4.48. It also gave a pIC50 (HCT-116 [9]) of 3.81 to 4.48.
In the case of O=C(NCc1cn(Cc2ccc(F)cc2)nn1)c1cc(-c2ccccc2)on1, the GI50 (MCF7 [12]) was 27.7 to 85.7 µg/mL (≈ 73.4 to 227 µM) and the GI50 (T47D [13]) was 27.7 to 85.7 µg/mL (≈ 73.4 to 227 µM).
In the case of CN(C)CCCOc1cc(C(=O)NCc2cn(-c3cccc(NC(=O)[C@@H]4CCCN4)c3)nn2)nc(C(=O)NCc2cn(-c3cccc(NC(=O)[C@H]4CCCN4)c3)nn2)c1, the pIC50 (MCF7 [8]) was 5.77, the pIC50 (HCT-116 [9]) was 5.89 and the pIC50 (C2C12) was < 4.40.
With COc1cc([C@@H]2c3cc4c(cc3[C@H](n3cc(CO[C@@H]5O[C@H](CO[C@@H]6O[C@H](CO)[C@@H](O)[C@H](O)[C@H]6O)[C@@H](O)[C@H](O)[C@H]5O)nn3)[C@H]3COC(=O)[C@H]23)OCO4)cc(OC)c1OC the pIC50 [10] was 5.13 to 6.17, the pIC50 (SW480) was 5.13 to 6.17 and the pIC50 (MCF7 [8]) was 5.13 to 6.17. For the same molecule, the pIC50 (A549) was 5.13 to 6.17.
For CNC(=S)N1N=C(c2nnn(-c3ccc(-n4nnc(C5=NN(C(=S)NC)C(c6ccccc6)C5)c4C)cc3)c2C)CC1c1ccccc1 (stereo not drawn), the IC50 (HepG2 [2]) was > 100 µg/mL, the IC50 (HCT-116 [14]) was > 100 µg/mL and the IC50 (MCF7 [7]) was 3.46 µg/mL.
With O=C(Cn1cc(C(O)c2ccccc2)nn1)N1CCN(c2nc3ccccc3s2)CC1 (stereo not drawn) the pIC50 (Caco-2) was 3.81 to 4.48, the pIC50 (MCF7 [8]) was 3.81 to 4.48 and the pIC50 (T47D [11]) was 3.81 to 4.48. For the same molecule, the pIC50 (HCT-116 [9]) was 3.81 to 4.48.
